This note sets out measurements from patent US9266892B2, “Fused pyrazoles as FGFR inhibitors” (Incyte Corporation, priority 2012, dated 2016).

Format in all cases: biochemical
One assay has as its target T1, FGFR1 (Homo sapiens, UniProt P11362).
T1 construct: purchased Millipore or Invitrogen
The assay can be described thus: FGFR Enzymatic Assay (FRET peptide phosphorylation), FGFR1. The note with it: FGFR1 0.02 nM, ATP 210 μM. How it is done: (§1) The inhibitor potency of the Example compounds was measured in an enzyme assay that measures peptide phosphorylation using FRET measurements to detect product formation. Inhibitors were serially diluted in DMSO and a volume of 0.5 μL was transferred to the wells of a 384-well plate. For FGFR3, a 10 μL volume of FGFR3 enzyme (Millipore) diluted in assay buffer (50 mM HEPES, 10 mM MgCl2, 1 mM EGTA, 0.01% Tween-20, 5 mM DTT, pH 7.5) was added to the plate and pre-incubated for 5-10 minutes. Appropriate controls (enzyme blank and enzyme with no inhibitor) were included on the plate. The assay was initiated by the addition of a 10 μL solution containing biotinylated EQEDEPEGDYFEWLE peptide substrate (SEQ ID NO: 1) and ATP (final concentrations of 500 nM and 140 μM respectively) in assay buffer to the wells. The plate was incubated at 25° C. for 1 hr. The reactions were ended with the addition of 10 μL/well of quench solution (50 mM Tris, 150 mM NaCl, 0.5 mg/mL BSA, pH˜7.8, 30 mM EDTA with Perkin Elmer Lance Detection Reagents at 3.75 nM Eu-antibody PY20 and 180 nM APC-Streptavidin). The plate was allowed to equilibrate for 1 hour before scanning the wells on a PheraStar plate reader (BMG Labtech). The enzymes were purchased from Millipore or Invitrogen.
(§2) FGFR1 and FGFR2 were measured under equivalent conditions with the following changes in enzyme and ATP concentrations: FGFR1, 0.02 nM and 210 μM, respectively and FGFR2, 0.01 nM and 100 μM, respectively.
(§3) GraphPad prism3 was used to analyze the data. The IC50 values were derived by fitting the data to the equation for a sigmoidal dose-response with a variable slope. Y=Bottom+(Top−Bottom)/(1+10^((Log IC50−X)*HillSlope)) where X is the logarithm of concentration and Y is the response.

A further assay addresses T2, FGFR2 (Homo sapiens, UniProt P21802).
T2 construct: purchased Millipore or Invitrogen
The assay can be described thus: FGFR Enzymatic Assay (FRET peptide phosphorylation), FGFR2. The note with it: FGFR2 0.01 nM, ATP 100 μM. The protocol: as §1, §2, §3

Another assay deals with T3, FGFR3 (Homo sapiens, UniProt P22607).
T3 construct: purchased Millipore
Nature of the assay: FGFR Enzymatic Assay (FRET peptide phosphorylation), FGFR3. The note with it: ATP 140 μM, 25° C. for 1 hr. How it is done: as §1, §3

A value given as a limit tells only on which side of the number the result lay.

T3 sequence (P22607 23-806): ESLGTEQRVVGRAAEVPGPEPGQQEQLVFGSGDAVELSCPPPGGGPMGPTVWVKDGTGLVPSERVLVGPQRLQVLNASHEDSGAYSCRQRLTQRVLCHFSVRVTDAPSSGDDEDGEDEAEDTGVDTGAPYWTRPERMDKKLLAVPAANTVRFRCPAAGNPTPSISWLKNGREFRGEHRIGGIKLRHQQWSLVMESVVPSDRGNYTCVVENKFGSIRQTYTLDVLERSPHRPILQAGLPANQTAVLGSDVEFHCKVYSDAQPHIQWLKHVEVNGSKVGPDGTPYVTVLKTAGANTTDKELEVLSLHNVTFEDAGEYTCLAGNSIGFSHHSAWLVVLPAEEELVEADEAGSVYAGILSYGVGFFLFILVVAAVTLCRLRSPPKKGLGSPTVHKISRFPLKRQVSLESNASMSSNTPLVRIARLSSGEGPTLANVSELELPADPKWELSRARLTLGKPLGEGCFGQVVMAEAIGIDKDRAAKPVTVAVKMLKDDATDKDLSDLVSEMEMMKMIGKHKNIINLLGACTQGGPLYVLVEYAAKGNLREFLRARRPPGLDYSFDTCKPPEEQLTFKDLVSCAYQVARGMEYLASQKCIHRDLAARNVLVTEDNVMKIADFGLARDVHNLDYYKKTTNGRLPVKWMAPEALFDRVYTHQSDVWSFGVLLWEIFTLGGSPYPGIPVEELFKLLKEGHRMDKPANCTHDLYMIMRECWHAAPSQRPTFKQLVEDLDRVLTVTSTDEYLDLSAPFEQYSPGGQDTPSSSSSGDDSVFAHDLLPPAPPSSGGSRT
T1 sequence (P11362 22-822): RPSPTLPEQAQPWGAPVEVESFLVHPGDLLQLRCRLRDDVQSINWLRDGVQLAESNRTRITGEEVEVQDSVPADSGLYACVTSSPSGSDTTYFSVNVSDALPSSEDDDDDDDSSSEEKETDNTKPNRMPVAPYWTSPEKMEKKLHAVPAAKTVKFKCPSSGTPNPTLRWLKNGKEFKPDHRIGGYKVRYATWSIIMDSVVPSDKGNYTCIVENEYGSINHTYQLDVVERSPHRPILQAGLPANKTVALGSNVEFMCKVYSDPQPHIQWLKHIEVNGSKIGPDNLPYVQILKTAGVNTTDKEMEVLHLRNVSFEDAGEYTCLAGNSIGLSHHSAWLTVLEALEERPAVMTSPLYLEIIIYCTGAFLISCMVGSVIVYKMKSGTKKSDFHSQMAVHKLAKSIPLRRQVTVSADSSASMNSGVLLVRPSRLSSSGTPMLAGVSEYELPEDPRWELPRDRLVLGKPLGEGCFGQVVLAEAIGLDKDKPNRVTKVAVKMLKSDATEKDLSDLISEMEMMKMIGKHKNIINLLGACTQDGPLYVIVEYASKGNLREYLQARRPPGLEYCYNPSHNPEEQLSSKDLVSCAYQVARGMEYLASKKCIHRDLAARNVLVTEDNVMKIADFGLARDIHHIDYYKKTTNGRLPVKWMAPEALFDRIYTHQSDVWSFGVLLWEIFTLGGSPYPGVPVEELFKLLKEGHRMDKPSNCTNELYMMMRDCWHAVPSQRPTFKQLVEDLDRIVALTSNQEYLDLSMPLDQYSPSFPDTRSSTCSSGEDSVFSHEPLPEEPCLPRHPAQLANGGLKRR
T2 sequence (P21802 22-821): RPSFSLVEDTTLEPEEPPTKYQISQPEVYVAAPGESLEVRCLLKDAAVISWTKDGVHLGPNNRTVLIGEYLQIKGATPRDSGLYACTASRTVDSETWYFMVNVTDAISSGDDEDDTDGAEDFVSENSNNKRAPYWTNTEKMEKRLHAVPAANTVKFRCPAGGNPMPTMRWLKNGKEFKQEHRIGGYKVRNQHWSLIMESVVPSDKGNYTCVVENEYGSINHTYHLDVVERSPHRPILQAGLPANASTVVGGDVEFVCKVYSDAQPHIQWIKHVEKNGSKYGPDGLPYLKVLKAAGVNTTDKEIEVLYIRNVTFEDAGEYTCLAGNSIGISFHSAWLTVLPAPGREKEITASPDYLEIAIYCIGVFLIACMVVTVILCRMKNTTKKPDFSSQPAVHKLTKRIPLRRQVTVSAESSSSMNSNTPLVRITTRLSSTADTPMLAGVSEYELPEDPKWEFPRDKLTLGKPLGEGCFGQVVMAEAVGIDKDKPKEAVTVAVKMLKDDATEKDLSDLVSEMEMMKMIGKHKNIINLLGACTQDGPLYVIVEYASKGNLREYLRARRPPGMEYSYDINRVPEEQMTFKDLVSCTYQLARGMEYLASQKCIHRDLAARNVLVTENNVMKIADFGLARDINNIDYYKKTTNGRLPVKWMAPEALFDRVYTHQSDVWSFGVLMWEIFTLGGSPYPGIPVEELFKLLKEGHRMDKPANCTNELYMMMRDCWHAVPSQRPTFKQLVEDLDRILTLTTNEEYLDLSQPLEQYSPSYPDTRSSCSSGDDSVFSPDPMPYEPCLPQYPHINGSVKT

`COc1cc(OC)c(F)c(-c2ncc3c(-c4ccnc(N5CCN(C)CC5)c4)n[nH]c3n2)c1F` [Example 19, 6-(2,6-Difluoro-3,5-dimethoxyphenyl)-3-[2-(4-methylpiperazin-1-yl)pyridin-4-yl]-1H-pyrazolo[3,4-d]pyrimidine]: the IC50 against FGFR1, on FGFR2 and against FGFR3 was less than 100 nM in each case.

As for `COc1cc(OC)c(F)c(-c2ncc3c(-c4ccc(OCCN(C)C)cc4)n[nH]c3n2)c1F` [Example 20, 2-{4-[6-(2,6-Difluoro-3,5-dimethoxyphenyl)-1H-pyrazolo[3,4-d]pyrimidin-3-yl]phenoxy}-N,N-dimethylethanamine], the IC50 on FGFR1, at FGFR2 and against FGFR3 was less than 100 nM in each case.

`COc1cc(OC)c(F)c(-c2ncc3c(-c4ccc5c(c4)CN(C4CC4)C5=O)n[nH]c3n2)c1F` [Example 21, 2-Cyclopropyl-5-[6-(2,6-difluoro-3,5-dimethoxyphenyl)-1H-pyrazolo[3,4-d]pyrimidin-3-yl]isoindolin-1-one]: the 50% inhibitory concentration (IC50) at FGFR1, against FGFR2 and against FGFR3 was less than 100 nM each time.

`COc1cc(OC)c(Cl)c(-c2ncc3c(-c4ccc5c(c4)CN([C@H]4CC[C@@H](O)CC4)C5=O)n[nH]c3n2)c1Cl` [Example 22, 5-[6-(2,6-Dichloro-3,5-dimethoxyphenyl)-1H-pyrazolo[3,4-d]pyrimidin-3-yl]-2-(cis-4-hydroxycyclohexyl)isoindolin-1-one]: the IC50 against FGFR1, against FGFR2 and against FGFR3 was less than 100 nM each time.

As to `COc1cc(OC)c(Cl)c(-c2ncc3c(-c4ccc5c(c4)CN([C@H]4CC[C@H](O)CC4)C5=O)n[nH]c3n2)c1Cl` [Example 23, 5-[6-(2,6-Dichloro-3,5-dimethoxyphenyl)-1H-pyrazolo[3,4-d]pyrimidin-3-yl]-2-(trans-4-hydroxycyclohexyl)isoindolin-1-one], the IC50 at FGFR1, on FGFR2 and against FGFR3 was less than 100 nM in each case.

On to `COc1cc(OC)c(F)c(-c2cc3[nH]nc(-c4ccc5c(c4)CC(C(=O)N4CCN(C)CC4)O5)c3cn2)c1F` (stereo not drawn) [Example 24, 6-(2,6-Difluoro-3,5-dimethoxyphenyl)-3-{2-[(4-methylpiperazin-1-yl)carbonyl]-2,3-dihydro-1-benzofuran-5-yl}-1H-pyrazolo[4,3-c]pyridine], for which the IC50 on FGFR1, against FGFR2 and against FGFR3 was less than 100 nM in each case.

Take `COc1cc(OC)c(F)c(-c2cc3[nH]nc(-c4ccc(N5CCN(C)CC5)cc4)c3cn2)c1F` [Example 25, 6-(2,6-Difluoro-3,5-dimethoxyphenyl)-3-[4-(4-methylpiperazin-1-yl)phenyl]-1H-pyrazolo[4,3-c]pyridine]: the concentration for half-maximal inhibition (IC50) against FGFR1, on FGFR2 and at FGFR3 was less than 100 nM in each case.

With `COc1cc(OC)c(F)c(-c2cc3[nH]nc(-c4ccc(N5CCN(C)CC5)nc4)c3cn2)c1F` [Example 26, 6-(2,6-Difluoro-3,5-dimethoxyphenyl)-3-[6-(4-methylpiperazin-1-yl)pyridin-3-yl]-1H-pyrazolo[4,3-c]pyridine], the IC50 on FGFR1, at FGFR2 and against FGFR3 was less than 100 nM throughout.

With `COc1cc(OC)c(F)c(-c2cc3[nH]nc(-c4ccnc(N5CCN(C)CC5)c4)c3cn2)c1F` [Example 27, 6-(2,6-Difluoro-3,5-dimethoxyphenyl)-3-[2-(4-methylpiperazin-1-yl)pyridin-4-yl]-1H-pyrazolo[4,3-c]pyridine], the 50% inhibitory concentration (IC50) against FGFR1, at FGFR2 and against FGFR3 was less than 100 nM each time.

Consider `COc1cc(OC)c(Cl)c(-c2cc3[nH]nc(-c4ccc5c(c4)CN(C4CC4)C5=O)c3cn2)c1Cl` [Example 28, 2-Cyclopropyl-5-[6-(2,6-dichloro-3,5-dimethoxyphenyl)-1H-pyrazolo[4,3-c]pyridin-3-yl]isoindolin-1-one], for which the IC50 on FGFR1, against FGFR2 and on FGFR3 was less than 100 nM throughout.

With `COc1cc(OC)c(Cl)c(-c2cc3[nH]nc(-c4ccc(OCC(=O)N(C)C)c(C)c4)c3cn2)c1Cl` [Example 29, 2-{4-[6-(2,6-Dichloro-3,5-dimethoxyphenyl)-1H-pyrazolo[4,3-c]pyridin-3-yl]-2-methylphenoxy}-N,N-dimethylacetamide], the IC50 on FGFR1, against FGFR2 and against FGFR3 was less than 100 nM in each case.

`COc1cc(OC)c(Cl)c(-c2cc3[nH]nc(-c4ccc5c(c4)NC(=O)CO5)c3cn2)c1Cl` [Example 30, 6-[6-(2,6-Dichloro-3,5-dimethoxyphenyl)-1H-pyrazolo[4,3-c]pyridin-3-yl]-2H-1,4-benzoxazin-3(4H)-one]: the IC50 at FGFR1, on FGFR2 and at FGFR3 was less than 100 nM each time.

`COc1cc(OC)c(Cl)c(-c2cc3[nH]nc(-c4ccc5c(c4)N(C)C(=O)CO5)c3cn2)c1Cl` [Example 31, 6-[6-(2,6-Dichloro-3,5-dimethoxyphenyl)-1H-pyrazolo[4,3-c]pyridin-3-yl]-4-methyl-2H-1,4-benzoxazin-3(4H)-one]: the 50% inhibitory concentration (IC50) (usually the midpoint of a concentration-inhibition curve) against FGFR1 was less than 100 nM; against FGFR2, 100 to 500 nM; against FGFR3, less than 100 nM.

On to `COc1cc(OC)c(Cl)c(-c2cc3[nH]nc(-c4ccc5c(c4)COC5=O)c3cn2)c1Cl` [Example 32, 5-[6-(2,6-Dichloro-3,5-dimethoxyphenyl)-1H-pyrazolo[4,3-c]pyridin-3-yl]-2-benzofuran-1(3H)-one], for which the IC50 on FGFR1, at FGFR2 and against FGFR3 was less than 100 nM each time.

For the compound `COc1cc(OC)c(Cl)c(-c2cc3[nH]nc(-c4cnn(C(C)C#N)c4)c3cn2)c1Cl` (stereo not drawn) [Example 33, 2-{4-[6-(2,6-Dichloro-3,5-dimethoxyphenyl)-1H-pyrazolo[4,3-c]pyridin-3-yl]-1H-pyrazol-1-yl}propanenitrile], the half-inhibitory concentration (IC50) against FGFR1, at FGFR2 and against FGFR3 was less than 100 nM each time.

`COc1cc(OC)c(Cl)c(-c2cc3[nH]nc(-c4ccc(C(O)C(=O)N(C)C)c(F)c4)c3cn2)c1Cl` (stereo not drawn) [Example 34, 2-{4-[6-(2,6-Dichloro-3,5-dimethoxyphenyl)-1H-pyrazolo[4,3-c]pyridin-3-yl]-2-fluorophenyl}-2-hydroxy-N,N-dimethylacetamide]: the 50% inhibitory concentration (IC50) at FGFR1, against FGFR2 and against FGFR3 was less than 100 nM throughout.

Turning to `COc1cc(OC)c(Cl)c(-c2cc3[nH]nc(-c4ccc(OCCN(C)C)cc4)c3cn2)c1Cl` [Example 35, 2-{4-[6-(2,6-Dichloro-3,5-dimethoxyphenyl)-1H-pyrazolo[4,3-c]pyridin-3-yl]phenoxy}-N,N-dimethylethanamine], the IC50 at FGFR1, against FGFR2 and against FGFR3 was less than 100 nM throughout.

Turning to `CNC(=O)Cn1cc(-c2n[nH]c3cc(-c4c(Cl)c(OC)cc(OC)c4Cl)ncc23)cn1` [Example 36, 2-{4-[6-(2,6-Dichloro-3,5-dimethoxyphenyl)-1H-pyrazolo[4,3-c]pyridin-3-yl]-1H-pyrazol-1-yl}-N-methylacetamide], the IC50 against FGFR1, against FGFR2 and on FGFR3 was less than 100 nM each time.

In the case of `COc1cc(OC)c(Cl)c(-c2cc3[nH]nc(-c4cnn(CC(=O)N(C)C)c4)c3cn2)c1Cl` [Example 37, 2-{4-[6-(2,6-Dichloro-3,5-dimethoxyphenyl)-1H-pyrazolo[4,3-c]pyridin-3-yl]-1H-pyrazol-1-yl}-N,N-dimethylacetamide], the IC50 on FGFR1, against FGFR2 and against FGFR3 was less than 100 nM in each case.

Take `COc1cc(OC)c(Cl)c(-c2cc3[nH]nc(-c4cnn(CC(=O)NC5CC5)c4)c3cn2)c1Cl` [Example 38, N-Cyclopropyl-2-{4-[6-(2,6-dichloro-3,5-dimethoxyphenyl)-1H-pyrazolo[4,3-c]pyridin-3-yl]-1H-pyrazol-1-yl}acetamide]: the IC50 against FGFR1, on FGFR2 and against FGFR3 was less than 100 nM throughout.

As for `COc1cc(OC)c(Cl)c(-c2cc3[nH]nc(-c4cnn(CC(=O)N5CC(O)C5)c4)c3cn2)c1Cl` [Example 39, 1-({4-[6-(2,6-Dichloro-3,5-dimethoxyphenyl)-1H-pyrazolo[4,3-c]pyridin-3-yl]-1H-pyrazol-1-yl}acetyl)azetidin-3-ol], the IC50 on FGFR1, at FGFR2 and against FGFR3 was less than 100 nM throughout.
